Results published in ChEMBL document CHEMBL2434942, “β-Ionone derived chalcones as potent antiproliferative agents” (Eur J Med Chem, 2013).
Active and inactive are the calls of the source. The calls are words filed in the database; no cut-off is given here.

What was measured:
[1] = Cytotoxicity against human Hep cells after 48 hrs by SRB assay; type: functional, cell-based
HeLa = assay: Cytotoxicity against human HeLa cells after 48 hrs by SRB assay; type: functional, cell-based
IMR-32 = assay: Cytotoxicity against human IMR32 cells after 48 hrs by SRB assay; type: functional, cell-based; settings: IMR-32, 48 h
PC-3 = assay: Cytotoxicity against human PC3 cells after 48 hrs by SRB assay; type: functional, cell-based; settings: PC-3, 48 h
MCF7 = assay: Cytotoxicity against human MCF7 cells after 48 hrs by SRB assay; type: functional, cell-based; settings: MCF7, 48 h
CHO [2] = assay: Induction of apoptosis in CHO cells assessed as necrotic cells at 10 uM after 12 hrs using Annexin V/PI staining by flow cytometry (reference value: 3%); type: functional, Cricetulus griseus
CHO [3] = assay: Induction of apoptosis in CHO cells assessed as late apoptotic cells at 10 uM after 12 hrs using Annexin V/PI staining by flow cytometry (reference value: 1%); type: functional, Cricetulus griseus
CHO [4] = assay: Induction of apoptosis in CHO cells assessed as viable cells at 10 uM after 12 hrs using Annexin V/PI staining by flow cytometry (reference value: 91.8%); type: functional; settings: Cricetulus griseus, read-out: Activity
CHO [5] = assay: Induction of apoptosis in CHO cells assessed as early apoptotic cells at 10 uM after 12 hrs using Annexin V/PI staining by flow cytometry (reference value: 4.3%); type: functional, Cricetulus griseus
CHO [6] = assay: Cell cycle arrest in CHO cells assessed as accumulation at sub-G0 phase at 10 uM after 12 hrs using propidium iodide staining by FACS analysis (reference value: 19.8%); type: functional, Cricetulus griseus
CHO [7] = assay: Induction of apoptosis in CHO cells assessed as necrotic cells at 15 uM after 12 hrs using Annexin V/PI staining by flow cytometry (reference value: 3%); type: functional, Cricetulus griseus
CHO [8] = assay: Induction of apoptosis in CHO cells assessed as late apoptotic cells at 15 uM after 12 hrs using Annexin V/PI staining by flow cytometry (reference value: 1%); type: functional, Cricetulus griseus
CHO [9] = assay: Induction of apoptosis in CHO cells assessed as viable cells at 15 uM after 12 hrs using Annexin V/PI staining by flow cytometry (reference value: 91.8%); type: functional; settings: Cricetulus griseus, read-out: Activity
CHO [10] = assay: Induction of apoptosis in CHO cells assessed as early apoptotic cells at 15 uM after 12 hrs using Annexin V/PI staining by flow cytometry (reference value: 4.3%); type: functional, Cricetulus griseus
CHO [11] = assay: Induction of apoptosis in CHO cells assessed as necrotic cells at 5 uM after 12 hrs using Annexin V/PI staining by flow cytometry (reference value: 3%); type: functional, Cricetulus griseus
CHO [12] = assay: Induction of apoptosis in CHO cells assessed as late apoptotic cells at 5 uM after 12 hrs using Annexin V/PI staining by flow cytometry (reference value: 1%); type: functional, Cricetulus griseus
CHO [13] = assay: Induction of apoptosis in CHO cells assessed as viable cells at 5 uM after 12 hrs using Annexin V/PI staining by flow cytometry (reference value: 91.8%); type: functional; settings: Cricetulus griseus, read-out: Activity
CHO [14] = assay: Induction of apoptosis in CHO cells assessed as early apoptotic cells at 5 uM after 12 hrs using Annexin V/PI staining by flow cytometry (reference value: 4.3%); type: functional, Cricetulus griseus
CHO [15] = assay: Cell cycle arrest in CHO cells assessed as accumulation at sub-G0 phase at 15 uM after 12 hrs using propidium iodide staining by FACS analysis (reference value: 19.8%); type: functional, Cricetulus griseus
CHO [16] = assay: Cell cycle arrest in CHO cells assessed as accumulation at sub-G0 phase at 5 uM after 12 hrs using propidium iodide staining by FACS analysis (reference value: 19.8%); type: functional, Cricetulus griseus
CHO [17] = assay: Induction of apoptosis in CHO cells assessed as cell shrinkage, membrane blebbing and formation of apoptotic body at 5 to 15 uM after 6 to 12 hrs by inverted light microscopic analysis; type: functional, cell-based; settings: Cricetulus griseus
CHO [18] = assay: Induction of apoptosis in CHO cells assessed as cell shrinkage, membrane blebbing and formation of apoptotic body at 5 to 15 uM after 24 hrs by inverted light microscopic analysis; type: functional, cell-based; settings: Cricetulus griseus
CHO [19] = assay: Cytotoxicity against CHO cells after 48 hrs by SRB assay; type: functional, cell-based; settings: Cricetulus griseus

| Compound | IC50 [1] [µM] | IC50 (HeLa) [µM] | IC50 (IMR-32) [µM] | IC50 (PC-3) [µM] | IC50 (MCF7) [µM] | other results |
| --- | --- | --- | --- | --- | --- | --- |
| CC1=C(/C=C/C(=O)/C=C/c2ccccc2)C(C)(C)CCC1 | 62.2 | 70.2 | 20.4 | 12.4 | 10.6 | – |
| CC1=C(/C=C/C(=O)/C=C/c2ccccc2C)C(C)(C)CCC1 | 41 | > 100 | 63.2 | 44.1 | 44.6 | – |
| COc1ccccc1/C=C/C=C/C(=O)/C=C/C1=C(C)CCCC1(C)C | 65.3 | 33.5 | 72.4 | 25.3 | 55.4 | – |
| COc1cc(/C=C/C(=O)/C=C/C2=C(C)CCCC2(C)C)cc(OC)c1OC | 45.5 | 73.2 | 55.5 | 32.6 | 18.7 | – |
| CC1=C(/C=C/C(=O)/C=C/c2ccoc2)C(C)(C)CCC1 | > 100 | 88.4 | 56.8 | 50.3 | 100 | – |
| CC(=O)O[C@H]1C(=O)[C@@]2(C)[C@H]([C@H](OC(=O)c3ccccc3)[C@]3(O)C[C@H](OC(=O)[C@H](O)[C@@H](NC(=O)c4ccccc4)c4ccccc4)C(C)=C1C3(C)C)[C@]1(OC(C)=O)CO[C@@H]1C[C@@H]2O [PACLITAXEL] | – | – | – | 1.5 | 0.5 | – |
| CO[C@@]12[C@H](COC(N)=O)C3=C(C(=O)C(C)=C(N)C3=O)N1C[C@@H]1N[C@@H]12 [MITOMYCIN] | – | 2 | – | – | – | – |
| CC1=C(/C=C/C(=O)/C=C/C=C/c2ccccc2)C(C)(C)CCC1 | > 100 | > 100 | 23.4 | 35.4 | 46.7 | – |
| CC1=C(/C=C/C(=O)/C=C/c2ccc(Cl)c(Cl)c2)C(C)(C)CCC1 | > 100 | > 100 | 72.4 | 35.5 | 53.5 | – |
| CC1=C(/C=C/C(=O)/C=C/c2ccc(F)cc2)C(C)(C)CCC1 | 55.8 | 32.2 | 7.4 | 8.2 | 6.2 | – |
| CC1=C(/C=C/C(=O)/C=C/c2ccc(C#N)cc2)C(C)(C)CCC1 | 45.6 | 22.2 | 23.4 | 11.9 | 13.2 | – |
| CC1=C(/C=C/C(=O)/C=C/c2ccccc2Cl)C(C)(C)CCC1 | 54.2 | 21.8 | 13.7 | 11.3 | 54.6 | – |
| O=c1[nH]cc(F)c(=O)[nH]1 [FLUOROURACIL] | 0.5 | – | 1.3 | – | – | – |
| CC1=C(/C=C/C(=O)/C=C/c2ccc(Cl)cc2)C(C)(C)CCC1 | 90.6 | 33.2 | 52.3 | 9.5 | 10.2 | – |
| COc1ccccc1/C=C/C(=O)/C=C/C1=C(C)CCCC1(C)C | 38.9 | 88.2 | 19.2 | 14.2 | 13.4 | – |
| COc1ccc(/C=C/C(=O)/C=C/C2=C(C)CCCC2(C)C)cc1 | > 100 | 15.7 | 23.9 | 58.7 | 19.6 | – |
| CC1=C(/C=C/C(=O)/C=C/c2ccccc2Br)C(C)(C)CCC1 | 16.3 | 57.9 | 16.3 | 11.4 | 20.7 | – |
| CC[C@@]1(O)C(=O)OCc2c1cc1n(c2=O)Cc2cc3ccccc3nc2-1 [CAMPTOTHECIN] | – | – | – | – | – | Activity (CHO [2]): 21.6%; Activity (CHO [3]): 2.4%; viability at 10 µM (CHO [4]): 74.8%; Activity (CHO [5]): 1.2%; Activity (CHO [6]): 50.5% |
| CC1=C(/C=C/C(=O)/C=C/c2ccc(Br)cc2)C(C)(C)CCC1 | 34.5 | 88.8 | 10.4 | 18.9 | 20.1 | – |
| CC1=C(/C=C/C(=O)/C=C/c2ccccc2F)C(C)(C)CCC1 | 23.6 | 41.9 | 15.6 | 3.4 | 11 | – |
| CC1=C(/C=C/C(=O)/C=C/c2ccc(C)cc2)C(C)(C)CCC1 | 44.1 | 20.4 | 19.2 | 21.5 | 23.8 | – |
| COc1ccc(/C=C/C(=O)/C=C/C2=C(C)CCCC2(C)C)cc1OC | 72.4 | 85 | 29.2 | 30.2 | 35.6 | – |
| CC1=C(/C=C/C(=O)/C=C/c2cccnc2)C(C)(C)CCC1 | 45.6 | 17.4 | 25.3 | 10.2 | 15.5 | – |
| CC1=C(/C=C/C(=O)/C=C/c2ccc([N+](=O)[O-])cc2)C(C)(C)CCC1 | 55.5 | 28.7 | 3.2 | 1.9 | 5.5 | Activity (CHO [7]): 39.1%; Activity (CHO [8]): 7.5%; viability at 15 µM (CHO [9]): 52.3%; Activity (CHO [10]): 1.1%; Activity (CHO [11]): 19.4%; Activity (CHO [12]): 5.1%; viability at 5 µM (CHO [13]): 74.7%; Activity (CHO [14]): 0.8%; Activity (CHO [2]): 33.3%; Activity (CHO [3]): 5.8%; viability at 10 µM (CHO [4]): 59.5%; Activity (CHO [5]): 1.4%; Activity (CHO [15]): 48.1%; Activity (CHO [16]): 30.5%; Activity (CHO [6]): 36%; Activity (CHO [17]): Active; Activity (CHO [18]): Active; Activity (CHO [19]): Dose-dependent effect; IC50 (CHO [19]): 10 µM |
| CC1=C(/C=C/C(=O)/C=C/c2ccccc2[N+](=O)[O-])C(C)(C)CCC1 | 44.9 | 36.1 | 13.5 | 9.5 | 10.1 | – |
| CC1=C(/C=C/C(=O)/C=C/c2cccc3ccccc23)C(C)(C)CCC1 | > 100 | 65.4 | 43.8 | 56.4 | 53.2 | – |
